Values after ≈ are worked out from the molar mass of the structure shown.
Key:
μ-calpain = system: T1, μ-calpain; assay type: biochemical; conditions: μ-calpain derived from human red blood cells; 30° C., 60 minutes; read-out: Enzyme inhibitory activity μ-calpain (IC50)
T1 construct: μ-calpain (derived from human red blood cells; available from Cosmo Bio Co. Ltd.); purchased Cosmo Bio Co. Ltd; host or cells: purified from human red blood cells
Procedure: (1) Measurement of Inhibitory Activity Against μ-Calpain and m-Calpain
The inhibitory activity against μ-calpain and m-calpain was assayed according to the method described in Anal. Biochem. 1993, vol. 208, p. 387-392. That is, to 2.5 μL of a DMSO solution containing a varying concentration of the test sample in a 96-well plate was added 200 μL of a reaction solution containing 0.5 mg/mL casein, 50 mM Tris-HCl buffer (pH 7.4), 20 mM dithiothreitol and 1.0 nmol μ-calpain (derived from human red blood cells; available from Cosmo Bio Co. Ltd.) or m-calpain (derived from porcine kidney; available from Cosmo Bio Co. Ltd.). After 20 mM aqueous calcium chloride (50 μL) was added thereto, the mixture was incubated at 30° C. for 60 minutes. Then, 100 μL of the reaction solution was transferred to another 96-well plate, and purified water (50 μL) and 50% aqueous solution (100 μL) of Protein Assay Dye Reagent (available from Bio-Rad Laboratories, Inc.; catalogue No. 500-600) were added thereto. The reaction mixture was allowed to stand at room temperature for 15 minutes, and its absorbance was measured at 595 nm.
The absorbance of a reaction mixture prepared in the same manner as mentioned above, except that a DMSO solution contained no sample, was used as a control value, and that of a reaction mixture prepared in the same manner as mentioned above, except that 1 mM aqueous EDTA solution (50 μL) was used in place of 20 mM aqueous calcium chloride, was used as a blank value. […] Inhibition rate (%)={1−(measured value minus blank value)/(control value minus blank value)}×100

[1] = Solubility in 10 mM phosphate buffer (pH 7.0); assay type: physicochemical
Procedure: Solubility of the compounds of the present invention in 10 mM phosphate buffer (pH 7.0) was measured.

[2] = Transportation rate into blood after oral administration; assay type: in vivo, Macaca fascicularis (crab-eating monkey); conditions: cynomolgus monkey, 10 mg/kg, Macaca fascicularis, plasma; for AUC(0-t): read-out: AUC 0→4 hr
Procedure: The compound of the present invention was administered orally to Macaca fascicularis (crab-eating monkey) at a dose of 10 mg/kg. The blood was collected with the lapse of time, and the concentration of each compound in the plasma was measured.

[3] = Partition coefficient using IAM column; assay type: physicochemical; conditions: IAM Fast Screening Mini-Column; Dulbecco's phosphate buffer (pH 7.4)
Procedure: Analysis by HPLC system was carried out under the conditions given below, and retention time of each substance was measured. • Column: IAM Fast Screening Mini-Column (Regis Technologies, Inc.) • Mobile phase: Dulbecco's phosphate buffer (pH 7.4) • Detection wavelength: 250 nm • Column temperature: room temperature • Injection amount: 5.0 to 20 μL • Flow rate: 0.5 mL/min • Sample solution: 5 mg of sample was dissolved in 100 μL of acetonitrile, and a mobile phase was added to make 1 mL of a sample solution.
The measured value was inserted into the following formula, and the partition coefficient (K′ IAM) was calculated. k′IAM=(tR−t0)/t0 t0: retention time of the peak derived from acetonitrile tR: retention time of the peak of the sample

in vitro = conditions: human, Caco-2
Procedure: As a culture medium for the incubation, Dulbecco's modified Eagle's minimum essential medium (GIBCO BRL) supplemented with 10% fetal calf serum (GIBCO BRL), antibiotic-antimycotic mixture, liquid (GIBCO BRL), non-essential amino acid solution (GIBCO BRL) and 2 mmol/L L-glutamine (GIBCO BRL) was used. […] Propranolol was used as a positive control, and ^14C-mannitol was used as a negative control. LC-MS/MS was used for quantitative analysis of samples, and a liquid scintillation counter was used for quantitative analysis of ^14C-mannitol.
Papp: apparent permeation coefficient (cm/sec)
δQ/δt: permeation velocity (pmol/min)
A: area of monolayer cell=0.33 cm^2
C0: initial concentration at apical membrane side (pmol/mL)

Row | SMILES | IC50 (μ-calpain) [µM] | further results
1 | COCCOCCOC(=O)N[C@@H](CC(C)C)C(=O)NC(Cc1ccccc1)C(=O)C(N)=O (mixture of isomers) [Compound 23, ((1S)-1-((((1RS)-3-amino-1-benzyl-2,3-dioxopropyl)amino)carbonyl)-3-methylbutyl)carbamic acid 5-methoxy-3-oxapentyl ester] | 0.19 | –
2 | CCNC(=O)C(=O)[C@H](Cc1ccccc1)NC(=O)[C@H](CC(C)C)NC(=O)OCCOC [Compound 1, ((1S)-1-((((1S)-1-Benzyl-2,3-dioxo-3-(ethylamino)propyl)amino)carbonyl)-3-methylbutyl)carbamic acid 2-methoxyethyl ester] | 0.17 | –
3 | CCNC(=O)C(=O)[C@H](Cc1ccccc1)NC(=O)[C@H](CC(C)C)NC(=O)O[C@H]1CCOC1 [Compound 2, ((1S)-1-((((1S)-1-Benzyl-2,3-dioxo-3-(ethylamino)propyl)amino)carbonyl)-3-methylbutyl)carbamic acid (3S)-tetrahydrofuran-3-yl ester] | 0.15 | –
4 | CCNC(=O)C(=O)[C@H](Cc1ccccc1)NC(=O)[C@H](CC(C)C)NC(=O)OC1CCOCC1 [Compound 3, ((1S)-1-((((1S)-1-Benzyl-2,3-dioxo-3-(ethylamino)propyl)amino)carbonyl)-3-methylbutyl)carbamic acid tetrahydro-4H-pyran-4-yl ester] | 0.25 | –
5 | CC(C)C[C@H](NC(=O)O[C@H]1CCOC1)C(=O)N[C@@H](Cc1ccccc1)C(=O)C(=O)NC1CC1 [Compound 5, ((1S)-1-((((1S)-1-Benzyl-3-(cyclopropylamino)-2,3-dioxo-propyl)amino)carbonyl)-3-methylbutyl)carbamic acid (3S)-tetrahydrofuran-3-yl ester] | 0.09 | –
6 | CC(C)C[C@H](NC(=O)OC1CCOCC1)C(=O)N[C@@H](Cc1ccccc1)C(=O)C(=O)NC1CC1 [Compound 6, ((1S)-1-((((1S)-1-Benzyl-3-cyclopropylamino-2,3-dioxo-propyl)amino)carbonyl)-3-methylbutyl)carbamic acid tetrahydro-4H-pyran-4-yl ester] | 0.12 | –
7 | CCCNC(=O)C(=O)[C@H](Cc1ccccc1)NC(=O)[C@H](CC(C)C)NC(=O)OCCOC [Compound 7] | 0.1 | –
8 | COCCOC(=O)N[C@@H](CC(C)C)C(=O)N[C@@H](Cc1ccccc1)C(=O)C(=O)NC1CCC1 [Compound 8, ((1S)-1-((((1S)-1-Benzyl-2,3-dioxo-3-(cyclobutylamino)propyl)amino)carbonyl)-3-methylbutyl)carbamic acid 2-methoxyethyl ester] | 0.17 | –
9 | CCCCNC(=O)C(=O)[C@H](Cc1ccccc1)NC(=O)[C@H](CC(C)C)NC(=O)OCCOC [Compound 9, ((1S)-1-((((1S)-1-Benzyl-3-butylamino-2,3-dioxo-propyl)amino)carbonyl)-3-methylbutyl)carbamic acid 2-methoxyethyl ester] | 0.1 | –
10 | COCCOC(=O)N[C@@H](CC(C)C)C(=O)N[C@@H](Cc1ccccc1)C(=O)C(=O)NCC(F)(F)F [Compound 10, ((1S)-1-((((1S)-1-Benzyl-2,3-dioxo-3-(2,2,2-trifluoroethylamino)propyl)amino)carbonyl)-3-methylbutyl)carbamic acid 2-methoxyethyl ester] | 0.45 | –
11 | COCCOC(=O)N[C@@H](CC(C)C)C(=O)N[C@@H](Cc1ccccc1)C(=O)C(=O)NC1Cc2ccccc2C1 [Compound 11, ((1S)-1-((((1S)-1-Benzyl-2,3-dioxo-3-(2-indanylamino)propyl)amino)carbonyl)-3-methylbutyl)carbamic acid 2-methoxyethyl ester] | 0.17 | –
12 | COCCNC(=O)C(=O)[C@H](Cc1ccccc1)NC(=O)[C@H](CC(C)C)NC(=O)OCCOC [Compound 12, ((1S)-1-((((1S)-1-Benzyl-2,3-dioxo-3-(2-methoxyethylamino)propyl)amino)carbonyl)-3-methylbutyl)carbamic acid 2-methoxyethyl ester] | 0.18 | –
13 | CCNC(=O)C(=O)[C@H](CCc1ccccc1)NC(=O)[C@H](CC(C)C)NC(=O)OCCOC [Compound 13, ((1S)-1-((((1S)-2,3-Dioxo-3-ethylamino-1-(phenylethyl)propyl)amino)carbonyl)-3-methylbutyl)carbamic acid 2-methoxyethyl ester] | 0.3 | –
14 | CCNC(=O)C(=O)[C@H](CCc1ccccc1)NC(=O)[C@H](CC(C)C)NC(=O)O[C@H]1CCOC1 [Compound 14, ((1S)-1-((((1S)-2,3-Dioxo-3-ethylamino-1-(phenylethyl)propyl)amino)carbonyl)-3-methylbutyl)carbamic acid (3S)-tetrahydrofuran-3-yl ester] | 0.16 | –
15 | COCCOC(=O)N[C@@H](CC(C)C)C(=O)N[C@@H](CCc1ccccc1)C(=O)C(=O)NC1CC1 [Compound 15, ((1S)-1-((((1S)-2,3-Dioxo-3-cyclopropylamino-1-(phenylethyl)propyl)amino)carbonyl)-3-methylbutyl)carbamic acid 2-methoxyethyl ester] | 0.18 | –
16 | CC(C)C[C@H](NC(=O)O[C@H]1CCOC1)C(=O)N[C@@H](CCc1ccccc1)C(=O)C(=O)NC1CC1 [Compound 16, ((1S)-1-((((1S)-2,3-Dioxo-3-cyclopropylamino-1-(phenylethyl)propyl)amino)carbonyl)-3-methylbutyl)carbamic acid (3S)-tetrahydro-furan-3-yl ester] | 0.14 | –
17 | COCCOCCOCCOC(=O)N[C@@H](CC(C)C)C(=O)N[C@@H](Cc1ccccc1)C(=O)C(=O)NC1CC1 [Compound 18, ((1S)-1-((((1S)-1-Benzyl-2,3-dioxo-3-(cyclopropylamino)propyl)amino)carbonyl)-3-methylbutyl)carbamic acid 8-methoxy-3,6-dioxaoctyl ester] | – | Solubility [1]: 5400 µg/mL (≈ 10.1 mM); Cmax [2]: 660 nM; AUC(0-t) [2]: 1.6 µM·h; IAM (Log k′IAM) [3]: 1.38
18 | COCCOCCOCCOCCOC(=O)N[C@@H](CC(C)C)C(=O)N[C@@H](Cc1ccccc1)C(=O)C(=O)NC1CC1 [Compound 19, ((1S)-1-((((1S)-1-Benzyl-2,3-dioxo-3-(cyclopropylamino)propyl)amino)carbonyl)-3-methylbutyl)carbamic acid 11-methoxy-3,6,9-trioxaundecanyl ester] | – | Solubility [1]: 8300 µg/mL (≈ 14.3 mM); Cmax [2]: 900 nM; AUC(0-t) [2]: 1.6 µM·h; IAM (Log k′IAM) [3]: 1.44
19 | COCCOCCOCCOCCOCCOC(=O)N[C@@H](CC(C)C)C(=O)N[C@@H](Cc1ccccc1)C(=O)C(=O)NC1CC1 [Compound 20, ((1S)-1-((((1S)-1-Benzyl-2,3-dioxo-3-(cyclopropylamino)propyl)amino)carbonyl)-3-methylbutyl)carbamic acid 14-methoxy-3,6,9,12-tetraoxa-tetradecanyl ester] | – | Solubility [1]: 16300 µg/mL (≈ 26.1 mM)
20 | COCCOC(=O)N[C@@H](CC(C)C)C(=O)N[C@@H](CC(C)C)C(=O)C(=O)NCCOc1ccccc1 [Compound 21, ((1S)-1-((((1S)-2,3-Dioxo-1-(2-methylpropyl)-3-(2-phenoxyethyl)aminopropyl)amino)carbonyl)-3-methylbutyl)carbamic acid 2-methoxyethyl ester] | 0.08 | –
21 | COCCOCCOC(=O)N[C@@H](CC(C)C)C(=O)N[C@@H](CC(C)C)C(=O)C(=O)NCCOc1ccccc1 [Compound 22, ((1S)-1-((((1S)-2,3-Dioxo-1-(2-methylpropyl)-3-(2-phenoxyethyl)aminopropyl)amino)carbonyl)-3-methylbutyl)carbamic acid 5-methoxy-3-oxapentyl ester] | 0.09 | –
22 | CC(C)C[C@H](NC(=O)OCCc1ccccn1)C(=O)N[C@@H](Cc1ccccc1)C(=O)C(=O)NC1CC1 [Compound 24, ((1S)-1-((((1S)-1-benzyl-3-(cyclopropylamino)-2,3-dioxo-propyl)amino)carbonyl)-3-methylbutyl)carbamic acid 2-(pyridin-2-yl)ethyl ester] | 0.029 | –
23 | CC(C)NCC(O)COc1cccc2ccccc12 (stereo not drawn) [Propranolol, reference compound] | – | Papp A→B at 10 μm (in vitro): 8.5 ×10⁻⁶ cm/s; IAM (Log k′IAM) [3]: 1.95
